Measured values taken from patent US20110190365A1, “Insecticidal 4-phenyl-1H-pyrazoles” (Bayer Crop Science AG, priority 2008, published 2011).

assay: log P by HPLC on a reversed-phase column (C18), EEC Directive 79/831 Annex V.A8; format: physicochemical; settings: HCOOH
Method: The stated log P values were determined in accordance with EEC Directive 79/831 Annex V.A8 by HPLC (High Performance Liquid Chromatography) using a reversed-phase column (C18).

| Structure (SMILES) | log P (HCOOH) |
| --- | --- |
| Cc1cc(-n2nc(C(F)(F)F)c(-c3ccc(F)c(F)c3)c2N)ccc1C(=O)NCc1ccccn1 [I-A-Q2-355] | I-A-Q2-355: log P (HCOOH): 2.50 |
| Cc1cc(-n2nc(C(F)(F)F)c(-c3cc(Cl)cc(Cl)c3)c2N)ccc1C(=O)NCc1ncc(F)cc1F [I-A-Q2-278] | I-A-Q2-278: log P (HCOOH): 4.30 |
| Cc1cc(-n2nc(C(F)(F)F)c(-c3ccccc3C)c2N)ccc1C(=O)NCC(F)(F)C(F)F [I-A-Q2-317] | I-A-Q2-317: log P (HCOOH): 3.32 |
| CSc1c(-c2cc(Cl)cc(Cl)c2)c(C(F)(F)F)nn1-c1ccc(C(=O)NCc2ccccn2)c(C)c1 [I-A-Q2-028] | I-A-Q2-028: log P (HCOOH): 4.35 |
| Cc1cc(-n2nc(C(F)(F)F)c(-c3ccc(Cl)c(F)c3)c2N)ccc1C(=O)NCC(F)(F)C(F)F [I-A-Q2-310] | I-A-Q2-310: log P (HCOOH): 3.70 |
| CC(NC(=O)c1ccc(-n2nc(C(F)(F)F)c(-c3ccc(Cl)c(Cl)c3)c2N)cc1)c1ccccn1 (stereo not drawn) [I-A-Q2-160] | I-A-Q2-160: log P (HCOOH): 3.23 |
| Cc1cc(-n2nc(C(F)(F)F)c(-c3ccccc3C)c2N)ccc1C(=O)NCc1ccccn1 [I-A-Q2-359] | I-A-Q2-359: log P (HCOOH): 2.34 |
| Cc1cc(-n2nc(C(F)(F)Oc3cccc(Cl)c3)c(-c3cc(Cl)cc(C(F)(F)F)c3)c2N)ccc1C(=O)NCC(F)(F)C(F)F [I-A-Q2-297] | I-A-Q2-297: log P (HCOOH): 4.95 |
| Cc1cc(-n2nc(C(F)(F)F)c(-c3cc(Cl)cc(Cl)c3)c2N)ccc1C(=O)NCc1ncc(C(F)(F)F)cc1Cl [I-A-Q2-230] | I-A-Q2-230: log P (HCOOH): 4.89 |
| CCOC(=O)c1ccc(-n2nc(C(F)(F)F)c(I)c2N)cc1 [XI-A-044] | XI-A-044: log P (HCOOH): 3.66 |
| Cc1cc(-n2nc(C(F)(F)F)c(-c3cc(Cl)cc(Cl)c3)c2[S+](C)[O-])ccc1C(=O)NCC(F)(F)C(F)F (single isomer, unassigned) [I-A-Q2-283] | I-A-Q2-283: log P (HCOOH): 4.12 |
| Cc1cc(-n2nc(C(F)(F)F)c(-c3cc(Cl)cc(Cl)c3)c2N)ccc1C(=O)NCc1ncc[nH]1 [I-A-Q2-034] | I-A-Q2-034: log P (HCOOH): 1.94 |
| Cc1cc(-n2nc(C(F)(F)Oc3ccccc3Cl)c(-c3cc(Cl)cc(C(F)(F)F)c3)c2N)ccc1C(=O)NCC(F)(F)C(F)F [I-A-Q2-298] | I-A-Q2-298: log P (HCOOH): 4.64 |
| Nc1c(-c2ccc(Cl)cc2)c(C(F)(F)F)nn1-c1ccc(C(=O)NCC(F)(F)F)cc1 [I-A-Q2-162] | I-A-Q2-162: log P (HCOOH): 3.51 |
| CCCC(NC(=O)c1ccc(-n2nc(C(F)(F)F)c(-c3cc(Cl)cc(Cl)c3)c2N)cc1)C(F)(F)F (stereo not drawn) [I-A-Q2-071] | I-A-Q2-071: log P (HCOOH): 4.95 |
| Cc1cnc(CNC(=O)c2ccc(-n3nc(C(F)(F)F)c(-c4cc(Cl)cc(Cl)c4)c3N)cc2C)c(C)c1 [I-A-Q2-038] | I-A-Q2-038: log P (HCOOH): 3.11 |
| CNC(=O)c1ccc(-n2nc(C(F)(F)F)c(-c3cc(Cl)cc(Cl)c3)c2N)cc1C [I-A-Q2-013] | I-A-Q2-013: log P (HCOOH): 3.59 |
| Cc1cc(-n2nc(C(F)(F)F)c(-c3cc(Cl)cc(Cl)c3)c2N)ccc1C(=O)NCC(C)O (stereo not drawn) [I-A-Q2-262] | I-A-Q2-262: log P (HCOOH): 3.28 |
| C=CCNC(=O)c1ccc(-n2nc(C(F)(F)F)c(-c3cc(Cl)cc(Cl)c3)c2N)nc1 [I-A-Q2-104] | I-A-Q2-104: log P (HCOOH): 4.46 |
| CC(NC(=O)c1ccc(-n2nc(C(F)(F)F)c(-c3ccc(Br)cc3)c2N)cc1)C(F)(F)F (stereo not drawn) [I-A-Q2-188] | I-A-Q2-188: log P (HCOOH): 3.78 |
| Cc1cc(-n2nc(C(F)(F)F)cc2N)ccc1C(=O)NCC(F)(F)C(F)F [XI-A-088] | XI-A-088: log P (HCOOH): 2.63 |
| CCNC(=O)c1ccc(-n2nc(C(F)(F)F)c(-c3cc(Cl)cc(Cl)c3)c2N)cc1 [I-A-Q2-142] | I-A-Q2-142: log P (HCOOH): 3.77 |
| CCCNC(=O)c1ccc(-n2nc(C(F)(F)F)c(-c3cc(Cl)cc(Cl)c3)c2N)cc1C [I-A-Q2-202] | I-A-Q2-202: log P (HCOOH): 4.22 |
| CC(NC(=O)c1ccc(-n2nc(C(F)(F)F)c(-c3ccc(Cl)c(Cl)c3)c2N)cc1)C(F)(F)F (stereo not drawn) [I-A-Q2-155] | I-A-Q2-155: log P (HCOOH): 4.11 |
| Cc1cc(-n2nc(C(F)(F)F)c(-c3cc(Cl)cc(Cl)c3)c2N)ccc1C(=O)NC(C)c1ccccc1 (stereo not drawn) [I-A-Q2-016] | I-A-Q2-016: log P (HCOOH): 4.79 |

| Structure (SMILES) | log P (HCOOH) |
| --- | --- |
| Cc1cc(-n2nc(C(F)(F)F)c(-c3cc(Cl)cc(Cl)c3)c2N)ccc1C(=O)NCc1ccc(C(F)(F)F)nc1 [I-A-Q2-060] | I-A-Q2-060: log P (HCOOH): 4.34 |
| Cc1cc(-n2nc(C)c(-c3c(Cl)cccc3Cl)c2N)ccc1C(=O)NCC(F)(F)C(F)F [I-A-Q2-336] | I-A-Q2-336: log P (HCOOH): 2.76 |
| Cc1cc(-n2nc(C(F)(F)F)c(-c3cc(Cl)cc(Cl)c3)c2N)ccc1C(=O)NC1CCCCC1C(F)(F)F (stereo not drawn) [I-A-Q2-274] | I-A-Q2-274: log P (HCOOH): 4.95 |
| CC(NC(=O)c1ccc(-n2nc(C(F)(F)F)c(-c3ccc(Cl)cc3)c2N)cc1)C(F)(F)F (stereo not drawn) [I-A-Q2-153] | I-A-Q2-153: log P (HCOOH): 3.89 |
| CC(C)(CC(F)(F)F)NC(=O)c1ccc(-n2nc(C(F)(F)F)c(-c3cc(Cl)cc(Cl)c3)c2N)nc1 [I-A-Q2-099] | I-A-Q2-099: log P (HCOOH): 5.42 |
| Nc1c(-c2cc(Cl)cc(Cl)c2)c(C(F)(F)F)nn1-c1ccc(C(=O)NCc2ccccn2)c(C(F)(F)F)c1 [I-A-Q2-386] | I-A-Q2-386: log P (HCOOH): 3.77 |
| Cc1cc(-n2nc(C(F)(F)F)c(-c3cc(Cl)cc(Cl)c3)c2N)ccc1C(=O)NC(C)Cc1ccccn1 (stereo not drawn) [I-A-Q2-065] | I-A-Q2-065: log P (HCOOH): 2.72 |
| Cc1cc(-n2nc(C(F)(F)F)c(-c3cc(Cl)cc(Cl)c3)c2N)ccc1C(=O)NCC(F)(F)F [I-A-Q2-014] | I-A-Q2-014: log P (HCOOH): 4.34 |
| Cc1cc(-n2nc(C(F)(F)F)c(-c3cc(Cl)cc(Cl)c3)c2N)ccc1C(=O)N(C)Cc1ccccn1 [I-A-Q2-110] | I-A-Q2-110: log P (HCOOH): 2.69 |
| Cc1cc(-n2nc(C(F)(F)F)c(-c3cc(Cl)cc(Cl)c3)c2N)ccc1C(=O)NCCC(F)=C(F)F [I-A-Q2-061] | I-A-Q2-061: log P (HCOOH): 4.45 |
| COC(=O)c1ccc(-n2nc(C(F)(F)F)cc2N)cc1C [XI-A-080] | XI-A-080: log P (HCOOH): 1.97 |
| Cc1cc(-n2nc(C(F)(F)F)c(-c3ccc(I)cc3)c2N)ccc1C(=O)NCC(F)(F)C(F)F [I-A-Q2-313] | I-A-Q2-313: log P (HCOOH): 3.85 |
| Cc1cc(-n2nc(C(F)(F)F)c(-c3ccccc3Cl)c2N)ccc1C(=O)NCc1ccccn1 [I-A-Q2-351] | I-A-Q2-351: log P (HCOOH): 2.27 |
| Cc1cc(-n2nc(C(F)(F)F)c(-c3cc(Cl)cc(Cl)c3)c2N)ccc1C(=O)N(C)Cc1cccnc1 [I-A-Q2-209] | I-A-Q2-209: log P (HCOOH): 3.02 |
| COc1cnc(CNC(=O)c2ccc(-n3nc(C(F)(F)F)c(-c4cc(Cl)cc(Cl)c4)c3N)cc2C)cc1OC [I-A-Q2-037] | I-A-Q2-037: log P (HCOOH): 2.42 |
| CCC(C)C(NC(=O)c1ccc(-n2nc(C(F)(F)F)c(-c3cc(Cl)cc(Cl)c3)c2N)cc1)C(F)(F)F (stereo not drawn) [I-A-Q2-072] | I-A-Q2-072: log P (HCOOH): 5.22 |
| Cc1cc(-n2nc(C(F)(F)F)c(-c3cc(Cl)cc(Cl)c3)c2N)ccc1C(=O)NC(c1ccccn1)C(F)(F)F (stereo not drawn) [I-A-Q2-054] | I-A-Q2-054: log P (HCOOH): 2.31 |
| Cc1cc(-n2nc(C(F)(F)F)c(-c3c(F)cc(F)cc3F)c2N)ccc1C(=O)NCc1ccccn1 [I-A-Q2-350] | I-A-Q2-350: log P (HCOOH): 2.34 |
| Cc1cc(-n2nc(C(F)(F)F)c(Cl)c2N)ccc1C(=O)O [XI-A-085] | XI-A-085: log P (HCOOH): 1.95 |
| Cc1cc(-n2nc(C(F)(F)F)c(-c3cc(Cl)cc(Cl)c3)c2N)ccc1C(=O)NC1CCN(C(=O)C2CC2)CC1 [I-A-Q2-203] | I-A-Q2-203: log P (HCOOH): 3.77 |
| Cc1cc(-n2nc(C(F)(F)F)c(-c3cc(Cl)cc(Cl)c3)c2N)ccc1C(=O)NC1CC1F (stereo not drawn) [I-A-Q2-281] | I-A-Q2-281: log P (HCOOH): 3.97 |
| Cc1cc(-n2nc(C(F)(F)F)c(-c3cc(Cl)cc(Cl)c3)c2N)ccc1C(=O)N(C)C(C)c1cccnc1 (stereo not drawn) [I-A-Q2-208] | I-A-Q2-208: log P (HCOOH): 3.19 |
| Nc1c(-c2cc(Cl)cc(Cl)c2)c(C(F)(F)F)nn1-c1ccc(C(=O)NCc2ccccn2)cc1 [I-A-Q2-134] | I-A-Q2-134: log P (HCOOH): 3.11 |
| Cc1cc(-n2nc(C(F)(F)F)c(-c3ccc(Cl)cc3Cl)c2N)ccc1C(=O)NCC1CC1 [I-A-Q2-410] | I-A-Q2-410: log P (HCOOH): 3.94 |

same assay, conditions: HCOOH; Table 4, compounds of formula I-A-Q4

| Structure (SMILES) | log P (HCOOH) |
| --- | --- |
| Nc1c(-c2ccc(Cl)c(F)c2)c(C(F)(F)F)nn1-c1ccc(Cl)cn1 [I-A-Q4-048] | I-A-Q4-048: log P (HCOOH): 5.02 |
| CN(C)C=Nc1c(-c2ccc(Cl)cc2)c(C(F)(F)F)nn1-c1ncc(Cl)cn1 [I-A-Q4-015] | I-A-Q4-015: log P (HCOOH): 3.47 |
| Nc1c(-c2ccc(F)c(Cl)c2)c(C(F)(F)F)nn1-c1ccc(Cl)cn1 [I-A-Q4-047] | I-A-Q4-047: log P (HCOOH): 4.95 |
| Nc1c(-c2cccc(F)c2)c(C(F)(F)F)nn1-c1ccc(C(=O)O)cc1 [I-A-Q4-097] | I-A-Q4-097: log P (HCOOH): 2.88 |

same assay, conditions: HCOOH; compounds of the formula (IX), Table 11

| Structure (SMILES) | log P (HCOOH) |
| --- | --- |
| Nc1[nH]nc(C(F)(F)F)c1-c1cc(Cl)cc(Cl)c1 [IX-021] | IX-021: log P (HCOOH): 2.91 |

same assay, conditions: HPLC, reversed-phase C18, mobile phase with formic acid

| Structure (SMILES) | log P (HCOOH) |
| --- | --- |
| Nc1c(-c2cc(Cl)cc(Cl)c2)c(C(F)(F)F)nn1-c1ccc(-n2cncn2)c(-n2cncn2)c1 [I-A-Q1-075] | I-A-Q1-075: log P (HCOOH): 3.28 |
| Cc1ccccc1-c1c(C(F)(F)F)nn(-c2ccc(-n3cncn3)c(C#N)c2)c1N [I-A-Q1-039] | I-A-Q1-039: log P (HCOOH): 2.89 |
| N#Cc1cc(-n2nc(C(F)(F)Cl)c(-c3cc(Cl)cc(C(F)(F)F)c3)c2N)ccc1-n1cncn1 [I-A-Q1-049] | I-A-Q1-049: log P (HCOOH): 4.11 |
| CC(=O)NCc1ccc(-n2nc(C(F)(F)F)c(-c3cc(Cl)cc(Cl)c3)c2N)cc1Cl [I-A-Q3-023] | I-A-Q3-023: log P (HCOOH): 3.70 |
| N#Cc1ccc(-c2c(C(F)(F)F)nn(-c3ccc(-n4cncn4)c(C#N)c3)c2N)cc1 [I-A-Q1-047] | I-A-Q1-047: log P (HCOOH): 2.64 |
| N#Cc1cc(-n2nc(C(F)(F)F)c(-c3ccc(Cl)c(Cl)c3)c2N)ccc1-n1cncn1 [I-A-Q1-031] | I-A-Q1-031: log P (HCOOH): 3.60 |
